Measured values taken from patent publication US9833497B2, “Human originated EGF domain proteins and use of the same” (CHENGDU SOURCEBIO LIMITED-LIABILITY COMPANY, priority 2013, dated 2017).

How the values were obtained:
Type in all cases: cell-based
[1] = test system: E. coli BL21; test: MIC against Gram-negative bacteria: E. coli BL21; conditions: for MIC E. coli BL21 / MIC (μg/mL) E. coli BL21: 5×10^5 CFU/mL
Summary of the method: (§1)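 First, colonies from LB agar were grown in LB at 37° C, 185 rpm, to McFarland turbidity 0.5, then centrifuged and resuspended in fresh LB. Next, wells received 5×10^5 CFU/mL bacteria plus two-fold serially diluted EGF domain protein (triplicate). Finally, plates were shaken at 37° C and the no-growth concentration taken as MIC.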

[2] = test system: Klebsiella pneumonia; test: MIC against Gram-negative bacteria: Klebsiella pneumonia; conditions: for MIC K. pneumonia / MIC (μg/mL) K. pneumonia: 5×10^5 CFU/mL
Summary of the method: as §1

[3] = test system: Proteus vulgaris; test: MIC against Gram-negative bacteria: Proteus vulgaris; conditions: for MIC P. vulgaris / MIC (μg/mL) P. vulgaris: 5×10^5 CFU/mL
Summary of the method: as §1

[4] = test system: Pseudomonas aeruginosa; test: MIC against Gram-negative bacteria: Pseudomonas aeruginosa; conditions: for MIC P. aeruginosa / MIC (μg/mL) P. aeruginosa: 5×10^5 CFU/mL
Summary of the method: as §1

[5] = test system: Enterobacter cloacae; test: MIC against Gram-negative bacteria: Enterobacter cloacae; conditions: for MIC E. cloacae / MIC (μg/mL) E. cloacae: 5×10^5 CFU/mL
Summary of the method: as §1

[6] = test system: E. coli DH5α; test: Antibacterial activity: MIC and growth curve against E. coli DH5α in 96-well plate; conditions: minimal inhibitory concentration against E. coli DH5α; 96-well plate, 5×10^5 CFU/mL, 37° C., judged after 8 h
Summary of the method: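 Log-phase bacteria (OD600 ~0.5) resuspended in LB at 5×10^5 CFU/mL, exposed to recombinant protein at 50, 25, 12.5 μg/mL final in triplicate, 37 °C shaking at 175 rpm. OD600 read every 30 min; MIC is lowest concentration showing no growth.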

[7] = test system: Citrobacter diversus; test: MIC against Gram-negative bacteria: Citrobacter diversus; conditions: for MIC C. diversus / MIC (μg/mL) C. diversus: 5×10^5 CFU/mL
Summary of the method: as §1

[8] = test system: Moraxella catarrhalis; test: MIC against Gram-negative bacteria: Moraxella catarrhalis; conditions: for MIC M. catarrhalis / MIC (μg/mL) M. catarrhalis: 5×10^5 CFU/mL
Summary of the method: as §1

[9] = test system: Aeromonas hydrophila; test: MIC against Gram-negative bacteria: Aeromonas hydrophila; conditions: for MIC A. hydrophila / MIC (μg/mL) A. hydrophila: 5×10^5 CFU/mL
Summary of the method: as §1

[10] = test system: Serratia marcescens; test: MIC against Gram-negative bacteria: Serratia marcescens; conditions: for MIC S. marcescens / MIC (μg/mL) S. marcescens: 5×10^5 CFU/mL
Summary of the method: as §1

[11] = test system: Proteus mirabilis; test: MIC against Gram-negative bacteria: Proteus mirabilis; conditions: for MIC P. mirabilis / MIC (μg/mL) P. mirabilis: 5×10^5 CFU/mL
Summary of the method: as §1

[12] = E. coli BL21, 10 h cultivation at 37° C.
[13] = K. pneumonia, 10 h cultivation at 37° C.
[14] = P. vulgaris, 10 h cultivation at 37° C.
[15] = P. aeruginosa, 10 h cultivation at 37° C.
[16] = E. cloacae, 10 h cultivation at 37° C.
[17] = C. diversus, 10 h cultivation at 37° C.
[18] = M. catarrhalis, 10 h cultivation at 37° C.
[19] = A. hydrophila, 10 h cultivation at 37° C.
[20] = S. marcescens, 10 h cultivation at 37° C.
[21] = P. mirabilis, 10 h cultivation at 37° C.
[22] = 10 h cultivation at 37° C., two-fold serial dilution

Substance	MIC [6] [µg/mL]	MIC (μg/mL) E. coli BL21 [1, 12] [µg/mL]	MIC (μg/mL) K. pneumonia [2, 13] [µg/mL]	MIC (μg/mL) P. vulgaris [3, 14] [µg/mL]	MIC (μg/mL) P. aeruginosa [4, 15] [µg/mL]	MIC (μg/mL) E. cloacae [5, 16] [µg/mL]	MIC (μg/mL) C. diversus [7, 17] [µg/mL]	MIC (μg/mL) M. catarrhalis [8, 18] [µg/mL]	MIC (μg/mL) A. hydrophila [9, 19] [µg/mL]	MIC (μg/mL) S. marcescens [10, 20] [µg/mL]	MIC (μg/mL) P. mirabilis [11, 21] [µg/mL]	MIC E. coli BL21 [1, 22] [µg/mL]	MIC K. pneumonia [2, 22] [µg/mL]	MIC P. vulgaris [3, 22] [µg/mL]	MIC P. aeruginosa [4, 22] [µg/mL]	MIC E. cloacae [5, 22] [µg/mL]	MIC C. diversus [7, 22] [µg/mL]	MIC M. catarrhalis [8, 22] [µg/mL]	MIC A. hydrophila [9, 22] [µg/mL]	MIC S. marcescens [10, 22] [µg/mL]	also measured
PRT631 (CSCHPQGSVSEQMPCDPVTGQCSCLPHVTARDCSRCYPGFFDLQPGRGCRS; listed as Homo sapiens)	25																				MIC E. coli BL21 ([1]; 96-well plate, 37° C., 10 h): 12.5 µg/mL; MIC K. pneumonia ([2]; 96-well plate, 37° C., 10 h): 12.5 µg/mL; MIC P. vulgaris ([3]; 96-well plate, 37° C., 10 h): 12.5 µg/mL; MIC P. aeruginosa ([4]; 96-well plate, 37° C., 10 h): 25 µg/mL; MIC E. cloacae ([5]; 96-well plate, 37° C., 10 h): 25 µg/mL; MIC C. diversus ([7]; 96-well plate, 37° C., 10 h): 25 µg/mL; MIC M. catarrhalis ([8]; 96-well plate, 37° C., 10 h): 12.5 µg/mL; MIC A. hydrophila ([9]; 96-well plate, 37° C., 10 h): 12.5 µg/mL; MIC S. marcescens ([10]; 96-well plate, 37° C., 10 h): 25 µg/mL; MIC P. mirabilis ([11]; 96-well plate, 37° C., 10 h): 25 µg/mL
PRT812 (YGKHCRKKCNCANRGRCHRLYGACLCDPGLYGRFCH; listed as Homo sapiens)	12.5	12.5	25	50	12.5	50	12.5	50	25	12.5	12.5										
PRT807 (YGDGCQLPCTCQNGADCHSITGGCTCAPGFMGEVCA; listed as Homo sapiens)	25	50	12.5	50	25	50	25	50	12.5	12.5	12.5										
PRT1179 (DIDECASNPCLNGGHCQNEINRFQCLCPTGFSGNLCQ; listed as Homo sapiens)	12.5											50	12.5	25	25	50	12.5	25	25	12.5	MIC P. mirabilis [11, 22]: 50 µg/mL
PRT1039 (SSGICDEASCIHGGTCTAIKADSYICLCPLGFKGRHCE; listed as Homo sapiens)	50																				MIC [1, 12]: 50 µg/mL; MIC [2, 13]: 12.5 µg/mL; MIC [3, 14]: 12.5 µg/mL; MIC [4, 15]: 50 µg/mL; MIC [5, 16]: 25 µg/mL; MIC [7, 17]: 50 µg/mL; MIC [8, 18]: 12.5 µg/mL; MIC [9, 19]: 50 µg/mL; MIC [10, 20]: 50 µg/mL; MIC [11, 21]: 50 µg/mL
PRT1079 (DQCSLNNGGCSHNCSVAPGEGIVCSCPLGMELGPDNHTCQ; listed as Homo sapiens)	50											12.5	12.5	50	50	50	50	12.5	12.5	12.5	MIC P. mirabilis [11, 22]: 50 µg/mL
